Bridge positions count the residues as written; N and C are the ends. Square brackets hold non-standard residues; d marks the D form. Peptide text beside a SMILES is read from it. NMeF = CN[C@@H](Cc1ccccc1)C(=O)O; dOrn = NCCC[C@@H](N)C(=O)O

One data set deals with T1, Delta-opioid receptor (Homo sapiens, UniProt P41143).
T1 construct: expressed in transfected cells; host or cells: HEK293
Description: cAMP functional experiment, Delta-opioid receptor (forskolin-induced cAMP accumulation). The class given is cell-based. The procedure:
The agonistic activity of the cyclopeptide molecule of the present invention against Mu-opioid receptor, Delta-opioid receptor, Kappa-opioid receptor, NPFF1 receptor and NPFF2 receptor was evaluated by detecting the regulation of the cyclopeptide molecule of the present invention on the intracellular accumulation of cyclic adenosine monophosphate (cAMP) induced by Forskolin in HEK293 cells stably expressing these five receptors. The experimental method was: the cells were seeded in 24 well plates with 120000 cells per well, and were cultured for more than 20 hours. At the beginning of the experiment, the culture medium in the culture dish was suck out, and then 500 μL of preheated serum-free medium containing 1 mM of IBMX was added, the mixture was incubated at 37° C. for 10 minutes. Then each 10 μL of the drug to be tested and 10 μM of forskolin (final concentration) were added to each well. The mixture was incubated at 37° C. for 30 minutes. After incubation, all the liquid was suck out from the culture dish, 500 μL of 0.2 N hydrochloric acid was added to each well, the mixture was incubated at room temperature for 30 minutes to promote cell lysis. After lysis was complete, NaOH was added to neutralize the hydrochloric acid solution used for lysis. Then all the liquid was suck out from the culture dish into centrifuge tubes, the liquid was centrifuged at 12000 rpm for 2 minutes. 50 μL was taken to a clean centrifuge tube, 100 μL of 60 μg/μL PKA was added, and 100 μL of TE cAMP buffer was added to the blank control group (B). Another 50 μL of 0.5 μ Ci[^3H]cAMP was added to each of the above centrifuge tubes, the mixture was quickly mixed and incubated at 4° C. for more than 2 hours. After incubation, another 100 μL of activated carbon suspension was added to each tube, the mixture was vortex agitated evenly, placed in an ice bath for 1 minute, centrifuged at 5000 rpm for 4 minutes. 200 μL of supernatant after centrifugation in each tube was suck out to a 24 well plate, with an additional 700 μL of scintillator liquid added per well, then the 24 well plate was sealed with adhesive film, placed for 3 hours, then placed on the scintillation instrument for measurement.
The inhibitory effect of cAMP was represented by the percentage (% control) of drug inhibition of intracellular cAMP accumulation induced by Forskolin, wherein % control=(cAMP content when treated with Forskolin−cAMP content when Forskolin co-treated with the test drug)/(cAMP content when treated with Forskolin−cAMP content when treated with solvent). The related % control data was represented by mean±S.E.M. The dose-effect relationship of the drug was statistically analyzed using a nonlinear regression model, and the IC50 values of the multi-target cyclopeptide molecule on inhibition of Forskolin induced intracellular cAMP accumulation were calculated using the statistical software GraphPad Prism version 5.0.
On the technique in general: Changes in cAMP serve as a functional read-out for many G protein-coupled receptors.

In data set [1] the test system is Kunming male mice. Description: Analgesic tolerance assay, oral injection for 8 consecutive days. The class given is in vivo. Particulars: 8 consecutive days of oral injection, tail flick latency. On the procedure: The analgesic tolerance experiment was conducted by orally injecting compounds 1 and 11 for 8 consecutive days, and then identifying the changes in the analgesic tail flick threshold from the first day to the eighth day through a photothermal tail flick experiment, thus evaluating the pharmacological activity of compounds 1 and 11 in the present invention in terms of analgesic tolerance.
21±2 g Kunming male mice were selected for the experiment, and the mice were eat freely. Generally, the basic pain threshold of mice was measured on the first day, followed by oral injection of compounds 1 and 11 for 8 consecutive days. The pain threshold at different time points was measured on the first day, and only the pain threshold at the highest analgesic point was measured on the following 7 days.
The experimental data was represented by tail flick time. The analgesic tolerance of drugs was compared using the tail flick latency at the maximum analgesic effect time point of different compounds. The tail flick latency data was represented by mean±S.E.M. The differences of analgesic effects of […] administration for eight days in mice were analyzed using one-way ANOVA (Tukey HSD test). *P<0.05, **P<0.01, and ***P<0.001 indicated a significant difference in analgesic effects compared to the injection of the drug on the first day.
On the technique in general: Thermal pain tests record how soon the animal reacts.

The nature of data set [2]: Constipation side effect assay (gastrointestinal motility, activated carbon). Particulars: male, Kunming, mouse, in vivo; oral injection, mice; read-out: ED50 of gastrointestinal inhibition. The class given is in vivo, mice. The procedure:
(§1) 26±2 g Kunming male mice were selected. First, the mice were starved and placed in a box without padding. The mice were not allowed to eat, but could drink water freely. The mice were starved for 16 hours then weighted, and administered orally (p.o.). After 15 minutes of administration, pre-prepared activated carbon suspension (a physiological saline suspension containing 5% activated carbon and 10% arabic gum) was orally infused into the stomach at a volume of 0.1 mL/10 g. After 30 minutes of gavage, the mice were sacrificed through cervical dislocation. The mice were dissected immediately and the entire length of the small intestine was taken from the pylorus of the stomach to the cecum. Then the total length of the small intestine and the length of carbon powder movement were measured.
(§2) The experimental data of gastrointestinal motility was represented by a percentage of gastrointestinal motility, and the specific calculation method was represented by a percentage of the distance the carbon powder moved divided by the total length of the small intestine. The data was represented by the mean±S.E.M. of the percentage of gastrointestinal motility, and the differences between compounds and saline were analyzed using one-way ANOVA (Dunnett test). *P<0.05, **P<0.01, and ***P<0.001indicated significance of the difference between only saline injected and related compounds injected.

Data set [3] has as its system Kunming male mice. The description is as above. The class given is in vivo. Conditions: oral; for side effect of constipation: effective dose range of analgesia. The procedure:
as §1, §2

Another data set concerns male mice. Description: Conditioned place preference experiment (CPP). It counts as in vivo. Particulars: 10000 μg/kg orally. The procedure: Conditioned place preference experiment (CPP) was conducted in a device consisting of three organic glass boxes, wherein two large boxes (20×20×20 cm) on either side separated by a small box (5×20×20 cm) in the middle. A small door of 5×5 was at the bottom of two large boxes for mice to enter and exit, and the doors can be closed. A box on one side was white, with a rough wire mesh as the bottom and a light intensity of 50 lux. A box on other side was black, with a smooth bottom and a light intensity of 20 lux. 25±5 g male mice were selected for the experiment, the room temperature was 22±1° C. On the first day of the experiment, the mice were first screened, allowing them to shuttle freely between two boxes for 15 minutes. The time the mice stayed in one box was recorded, and mice that stayed for more than 9 minutes were removed. Mice without preference/aversion were selected. […] On the 5th day, CPP performance was measured. As on the first day, the time stay in each box was measured for the mice after administration with the duration of 15 minutes. The inter group differences between different drug treatments in the CPP experiment and the differences in the number of jumps in the naloxone withdrawal experiment was statistically analyzed using paired t-tests. *P<0.05, **P<0.01, and ***P<0.001 indicated significance of differences between the drug treatment group and the saline group.

T1 sequence (P41143 whole entry): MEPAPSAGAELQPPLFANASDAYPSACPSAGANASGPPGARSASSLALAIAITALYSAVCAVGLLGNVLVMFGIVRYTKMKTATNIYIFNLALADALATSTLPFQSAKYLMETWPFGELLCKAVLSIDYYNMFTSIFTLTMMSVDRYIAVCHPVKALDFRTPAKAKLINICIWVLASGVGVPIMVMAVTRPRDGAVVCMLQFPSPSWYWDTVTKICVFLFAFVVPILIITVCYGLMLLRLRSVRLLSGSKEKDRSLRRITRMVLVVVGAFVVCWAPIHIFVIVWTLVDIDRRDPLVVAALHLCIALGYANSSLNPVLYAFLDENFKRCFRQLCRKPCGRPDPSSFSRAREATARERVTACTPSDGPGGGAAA

Usually IC50 stands for the concentration that gives 50% inhibition. A high value points to a need for much substance. What is called ED50 is the dose at which the effect has come halfway, by size or by number of responders. In the case of `CN1C(=O)CNC(=O)[C@H](NC(=O)[C@@H](N)Cc2ccc(O)cc2)CCCCNC(=O)C[C@@H](C(=O)N2CCC[C@H]2C(=O)N[C@@H](CCC(N)=O)C(=O)N[C@@H](CCCNC(=N)N)C(=O)N[C@@H](Cc2ccccc2)C(N)=O)NC(=O)[C@@H]1Cc1ccccc1` [Compound 1, Tyr-c[D-Lys-Gly-NMe-Phe-Asp]-Pro-Gln-Arg-Phe-NH2] (H-Y[dK]G[NMeF]DPQRF-NH2; lactam 2-5), half-maximal inhibition at Delta-opioid receptor (IC50) was put at 549 nM. Further, the analgesic tolerance entry with Kunming male mice [1] is reported as “no analgesic tolerance observed”. For the same molecule, in data set [2], the ED50 at 45 min is 37.1 mg/kg. Moreover, in the data set with Kunming male mice [3], the “ED50 of gastrointestinal inhibition relative to analgesic ED50” value is 27044 times and the “side effect of constipation” value is “no side effect of constipation within the effective dose range of analgesia”. For the same molecule, the “conditioned place preference” value in the data set on male mice was “no phenomenon of conditioned place preference”.
Molecule `CN1C(=O)CNC(=O)[C@H](NC(=O)[C@@H](N)Cc2ccc(O)cc2)CCCNC(=O)CC[C@@H](C(=O)N2CCC[C@H]2C(=O)N[C@@H](CCC(N)=O)C(=O)N[C@@H](CCCNC(=N)N)C(=O)N[C@@H](Cc2ccccc2)C(N)=O)NC(=O)[C@@H]1Cc1ccccc1` [Compound 11, Tyr-c^[2,5][D-Orn-Gly-NMe-Phe-Glu]-Pro-Gln-Arg-Phe-NH2] (H-Y[dOrn]G[NMeF]EPQRF-NH2; lactam 2-5) returned an IC50 on Delta-opioid receptor of 1560 nM. Also, the analgesic tolerance entry in the data set on Kunming male mice [1] is on record as “no analgesic tolerance observed”. Also, in data set [2], the ED50 at 45 min was determined as 1.24 mg/kg. Moreover, in the data set with Kunming male mice [3], the “ED50 of gastrointestinal inhibition relative to analgesic ED50” value is 8850 times and the “side effect of constipation” value was “no side effect of constipation within the effective dose range of analgesia”. In the data set with male mice, the “conditioned place preference” value is “no phenomenon of conditioned place preference”.

The values are drawn from patent US20240166690A1, “MULTI-TARGET CY[…] FOR OPIOID/NEUROPEPTIDE FF RECEPTORS, AND PREPARATION THEREFOR AND APPLICATION THEREOF” (SHANGHAI TIANCI LIFE SCIENCE DEVELOPMENT CO., LTD., priority 2021, published 2024).
